Assay results as given in article PMC12311387, “Proactive Therapeutic Drug MONiToring to Guide Suppressive Antibiotic Therapy with DALBAvaNcin ( > 12 weeks) in Osteoarticular Infections (MONTALBANO)” (Journal of Bone and Joint Infection, 2025).

How the values were obtained:
Isolated pathogens = test: MIC of pathogens isolated from the patients; assay type: cell-based; conditions: calculated for one patient only
Text: Table 1 Baseline characteristics of the study population.

[1] = Safety: monitoring of adverse events, renal toxicity and platelet count; assay type: in vivo, human; conditions: patients n=33, treatment >12 weeks
Protocol: Safety was assessed by monitoring AEs. We defined renal toxicity as a reduction in the estimated glomerular filtration rate (eGFR) to less than 30 mL min^−1/1.73 m^2, accompanied by a decrease of at least 20 % from baseline. A significant reduction in platelet count was considered when the count fell below 100 000 per mm^−3 with a decrease of at least 25 % from baseline.

[2] = Therapeutic drug monitoring of plasma dalbavancin Cmin (LC-MS/MS) from the fourth dose onward; assay type: in vivo, human
Protocol: Included patients received the first three dalbavancin doses on day 1 (T0), day 8 (T1), and day 43 (T2) (Senneville et al., 2023). Subsequent injection timings were personalized and determined using dalbavancin Cmin measured immediately before the dalbavancin administration and maximum plasma concentrations ( Cmax ) measured 30 min after the end of the injection (Fig. 1). Starting from the third dose, Cmin and Cmax values were used in log-linear regression models by plotting logarithmic dalbavancin concentrations with time (Microsoft Excel Software, Microsoft Company, USA) (Cattaneo et al., 2023) to plan the subsequent administration aiming to maintain Cmin levels at ≥8 mg L^−1, as recommended in the recent literature (Cojutti et al., 2021).
Plasma dalbavancin blood samples were assessed using ethylene–diamine–tetraacetic acid (EDTA)-containing Vacutainers®. All samples were centrifuged at 3000 × g and plasma was separated and stored at -20 °C. Dalbavancin quantification was performed through a validated liquid chromatography tandem mass spectrometry method developed and validated according to the EMA guidelines. The analytical process consisted of a fast protein precipitation protocol of 50 µ L of plasma with 400 µ L of precipitation solution (methanol / acetonitrile, 3 / 1), centrifugation at 10 000 × g , 1 : 3 dilutions with water, and analysis. Chromatographic separation was achieved using a gradient (acetonitrile and water with formic acid 0.1 %) on a reversed-phase analytical column (Acquity UPLC BEH C18 1.70 µ m 2.1 × 50 mm; Waters, Milan, Italy). For quantification, analysis was performed in ESI-positive mode by monitoring the transition m/z = 909.45 > 340.2 for dalbavancin. The method was linear from 1 to 500 mg L^−1, with intraday and interday assay imprecision and inaccuracy consistently < 10 % during each analytical run.
The primary outcome was to evaluate the pharmacological efficacy of our proactive TDM-based administration method in maintaining the dalbavancin Cmin level at ≥8 mg L^−1 or ≥4 mg L^−1 taken from the fourth dose onward.
Pharmacological efficacy was defined as the number of instances where Cmin≥8 mg L^−1(or ≥4 mg L^−1) was achieved from the fourth dose onward. […] A tolerance window of up to ±4 d from the calculated injection date was allowed to adapt the model to real-life conditions and improve adherence to the treatment regimen.

[3] = cited from earlier work
[4] = tested on: osteoarticular infections (OAIs); test: Clinical effectiveness from chart review in patients with osteoarticular infections; assay type: in vivo, human
Protocol: We established effectiveness with an assessment of clinical and microbiological outcomes from chart review detected up to 31 October 2024. If the patient was still on dalbavancin treatment, the clinical outcome was assessed as “ongoing treatment”. Otherwise, the assessment could result in the following: (i) completed therapy with clinical success (absence of failure or relapse at the follow-up); (ii) failure (clinical or microbiological failure with uncontrolled infection during dalbavancin treatment; need for medical interventions for the treated episode in addition to the initial program); (iii) relapse (exacerbation of the clinical condition within 6 months after the end of treatment); (iv) discontinuation of therapy due to AEs; (v) discontinuation of therapy due to new hospitalization for other clinical events; (vi) missing data (insufficient details to assess the outcome; lost at follow-up); (vii) death for infection-related conditions; or (viii) death for non-infection-related conditions.

[5] = 12 PJI patients, 1500 mg day 1, 8, 14 then 1000 mg biweekly from day 28; all Cmin values well above target; ref Söderquist et al., 2024; cited from earlier work
Protocol: Currently, there is considerable heterogeneity in the use of SAT with dalbavancin for OAIs in both the initial and the maintenance doses. For the latter, some proposed regimens range from 500 mg weekly to 500 mg biweekly to 1000 mg biweekly (Martín et al., 2019; Morata et al., 2019; Wunsch et al., 2019). However, none of these studies employed TDM to assess the pharmacological efficacy of such regimens. Söderquist et al. (2024) recently shared their experience with 12 patients treated with long-term ( >12 weeks) dalbavancin for PJI, according to the Swedish national guidelines and introducing ...

[6] = only determinations within ±4 d of the date suggested by the model, plasma
[7] = plasma trough determinations from fourth dose onward, 33 OAI patients, TDM-guided dosing, total concentration

## CN[C@H]1C(=O)N[C@@H]2Cc3ccc(cc3)Oc3cc4cc(c3O[C@@H]3O[C@H](C(=O)O)[C@@H](O)[C@H](O)[C@H]3NC(=O)CCCCCCCCC(C)C)Oc3ccc(cc3Cl)[C@@H](O)[C@@H]3NC(=O)[C@H](NC(=O)[C@@H]4NC(=O)[C@@H](NC2=O)c2cc(cc(O)c2Cl)Oc2cc1ccc2O)c1ccc(O)c(c1)-c1c(O[C@H]2O[C@H](CO)[C@@H](O)[C@H](O)[C@@H]2O)cc(O)cc1[C@@H](C(=O)NCCCN(C)C)NC3=O [dalbavancin]
Isolated pathogens
  MIC for dalbavancin: < 0.06 µg/mL
[1]
  AEs, n (%): 0 n (%)
  Adverse effects on renal function or platelet count: did not observe any adverse effects on renal function or platelet count
[2]; [6]
  Cmin ≥4 mg L^−1, n (%), Cmin performed at correct timing (n=95): 93 (97.9) n (%)
  Cmin ≥8 mg L^−1, n (%), Cmin performed at correct timing (n=95): 81 (85.3) n (%)
[2]; [7]
  Cmin ≥4 mg L^−1, n (%), Total Cmin (n=118): 114 (96.6) n (%)
  Cmin ≥8 mg L^−1, n (%), Total Cmin (n=118): 93 (78.8) n (%)
[3]; ref Dunne et al., 2015
  penetration proportion into bone tissue: 13.1%
[3]; ref Rappo et al., 2019a
  half-life: 14.4 days
  total binding protein: 93%
[4]; patients n=33
  Completed therapy with clinical success, n (%): 11 (33.3) n (%)
  Failure, n (%): 1 (3) n (%)
[4]; patients n=33, still on treatment with controlled infection at end of study
  Ongoing, n (%): 18 (54.5) n (%)
[4]; patients n=33, within 6 months after end of treatment
  Relapse, n (%): 3 (9.1) n (%)
[5]
  Cmin: > 8000 ng/mL
